According to US10022397B2, “Treatment of rheumatoid arthritis using noble gas mixtures” (Nobilis Therapeutics, Inc., priority 2016, dated 2018):

System: patients with disease modifying antirheumatic drug (DMARD)-resistant Rheumatoid Arthritis (RA)
Procedure: 20 patients with disease modifying antirheumatic drug (DMARD)-resistant Rheumatoid Arthritis (RA) are chosen for a clinical trial assessing safety and efficacy of 25% Xenon administration with 75% air. A total of 10 liters of gas inhaled. Administration is performed 3 times per week.
Safety is determined by assessment of hematological biochemical, and coagulation parameters on baseline, and days 30, 60, and 90. Efficacy is assessed by CRP, ESR, anti-citrulline antibody, RF, Quality of Life Questionnaire, 28-joint disease activity score (DAS28), European League against Rheumatism (EULAR) response criteria and immunological parameters. […]
Safety will be assessed throughout the study with the use of direct evaluation and patient reporting during study visits or patient-initiated telephone contacts. The types, frequencies, severity, and duration of any reported adverse event or abnormalities in clinical laboratory values, physical examinations, vital signs, or special cardiovascular evaluations will be assessed. […]
To assess preliminary evidence of efficacy, the following assessments will be analyzed at following time points and compared to baseline values: […]
Quality of Life Assessment at 1, 2, and 3 Months Measured by: • Change in Rheumatoid Arthritis Quality of Life (RAQoL) questionnaire

SMILES: [Xe] [Xenon, xenon]
- clinical and immunological parameters of RA (25% Xenon with 75% air, 10 liters inhaled, 3 times per week, DAS28, EULAR, RF, ESR, CRP, anti-citrulline antibody, RAQoL at 1, 2 and 3 months vs baseline): reduction of clinical and immunological parameters of RA is noted in a statistically significant manner
- treatment associated adverse events (human, in vivo): no significant treatment associated adverse events
